Earlier results as cited in patent US6780436B1, “Solid oral pharmaceutical formulation of modified release that contains an acid labile benzimidazole compound” (Laboratorios Del Dr. Esteve, SA, priority 1999, dated 2004).

Details: hard gelatin capsules that contain omeprazole pellets with enteric coating; stated 'in general' in the background

time of peak plasma concentration after administration: 2 h
Compound: COc1ccc2[nH]c([S+]([O-])Cc3ncc(C)c(OC)c3C)nc2c1 (stereo not shown) [omeprazole, 5-methoxy-2[[(4-methoxy-3,5-dimethyl-2-pyridinyl)methyl]sulphinyl]-1H-benzimidazole]
